US8877778B2, “Benzofurane compounds” (Hoffmann-La Roche Inc., priority 2010, dated 2014)
Each block holds one compound with its values, some of them ahead of it.

Assays:
[1] = target: human 5-HT2A receptor (Homo sapiens (Human), UniProt P28223); assay: Radioligand binding ([3H]-ketanserin) to cloned receptors expressed in HEK-293 EBNA cells; conditions: HEK293 EBNA cell membranes expressing human 5-HT2A
In short: (§1)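 Membranes from transiently transfected HEK293 EBNA cells incubated 1 h at RT with ten compound concentrations (10 μM–0.1 nM). D2/D3: [3H]-spiperone ~0.7/0.5 nM, Tris–NaCl–Mg/Ca buffer pH 7.4; 5-HT2A: [3H]-ketanserin 1.1 nM, Tris–MgCl2–EGTA pH 7.4.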

[2] = target: human D3 receptor (Homo sapiens (Human), UniProt P35462); assay: Radioligand binding ([3H]-spiperone) to cloned receptors expressed in HEK-293 EBNA cells; conditions: HEK293 EBNA cell membranes expressing human D3
human D3 receptor, sequence (P35462 whole entry): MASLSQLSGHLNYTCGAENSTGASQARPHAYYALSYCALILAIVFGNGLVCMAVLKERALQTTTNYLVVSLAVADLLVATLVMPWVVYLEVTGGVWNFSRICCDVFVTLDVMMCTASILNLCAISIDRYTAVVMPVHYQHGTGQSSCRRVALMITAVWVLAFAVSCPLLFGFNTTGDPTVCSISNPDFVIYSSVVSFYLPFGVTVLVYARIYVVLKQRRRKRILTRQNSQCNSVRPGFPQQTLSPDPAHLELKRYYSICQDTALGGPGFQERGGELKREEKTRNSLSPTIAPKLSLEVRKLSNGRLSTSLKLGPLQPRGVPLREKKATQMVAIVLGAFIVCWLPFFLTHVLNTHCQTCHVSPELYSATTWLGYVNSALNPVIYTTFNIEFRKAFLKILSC
In short: as §1

[3] = target: human D2 receptor (Homo sapiens (Human), UniProt P14416); assay: as above; conditions: HEK293 EBNA cell membranes expressing human D2
human D2 receptor, sequence (P14416 whole entry): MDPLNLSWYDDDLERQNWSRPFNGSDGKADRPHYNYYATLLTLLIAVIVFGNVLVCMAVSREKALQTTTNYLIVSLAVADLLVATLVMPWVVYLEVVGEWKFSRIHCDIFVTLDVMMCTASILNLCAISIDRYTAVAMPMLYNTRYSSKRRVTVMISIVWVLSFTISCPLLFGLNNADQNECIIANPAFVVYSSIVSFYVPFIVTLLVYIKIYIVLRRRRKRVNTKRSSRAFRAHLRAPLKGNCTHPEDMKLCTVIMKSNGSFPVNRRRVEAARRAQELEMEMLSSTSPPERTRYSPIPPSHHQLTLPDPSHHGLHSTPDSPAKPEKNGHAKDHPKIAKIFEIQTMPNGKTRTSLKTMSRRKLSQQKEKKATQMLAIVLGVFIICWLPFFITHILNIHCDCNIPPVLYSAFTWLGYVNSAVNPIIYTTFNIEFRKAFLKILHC
In short: as §1

human 5-HT2A receptor, sequence (P28223 whole entry): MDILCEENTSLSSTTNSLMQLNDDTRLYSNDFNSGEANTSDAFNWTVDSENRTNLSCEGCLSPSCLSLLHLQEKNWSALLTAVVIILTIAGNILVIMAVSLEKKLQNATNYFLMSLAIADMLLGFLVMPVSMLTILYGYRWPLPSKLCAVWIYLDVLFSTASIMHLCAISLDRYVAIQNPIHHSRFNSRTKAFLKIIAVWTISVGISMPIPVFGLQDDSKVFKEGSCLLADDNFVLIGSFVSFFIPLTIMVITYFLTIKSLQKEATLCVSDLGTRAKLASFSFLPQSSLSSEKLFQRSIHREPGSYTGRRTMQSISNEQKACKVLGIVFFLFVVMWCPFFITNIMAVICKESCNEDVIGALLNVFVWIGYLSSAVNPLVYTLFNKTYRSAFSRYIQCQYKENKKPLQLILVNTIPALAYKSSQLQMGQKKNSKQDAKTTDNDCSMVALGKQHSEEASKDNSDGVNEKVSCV

Compound: CS(=O)(=O)c1ccc(C(=O)N[C@H]2CC[C@H](CCN3CCC(c4cccc5c4CCO5)CC3)CC2)s1 [Example 70, 5-Methanesulfonyl-thiophene-2-carboxylic acid trans-(4-{2-[4-(2,3-dihydro-benzofuran-4-yl)-piperidin-1-yl]-ethyl}-cyclohexyl)-amide]
- Ki [1]: 31.4 nM
- melting point: 255 °C
- Ki [2]: 6.63 nM
- Ki [3]: 195 nM

Compound: CC(C)(C)c1ccc(C(=O)N[C@H]2CC[C@H](CCN3CCC(c4cccc5c4CCO5)CC3)CC2)cc1 [Example 71, trans-4-tert-Butyl-N-(4-{2-[4-(2,3-dihydro-benzofuran-4-yl)-piperidin-1-yl]-ethyl}-cyclohexyl)-benzamide]
- Ki [1]: 28.6 nM
- melting point: 208 °C
- Ki [2]: 13.6 nM
- D2 Ki [3]: inactive

Compound: CC(C)(O)CC(=O)N[C@H]1CC[C@H](CCN2CCC(c3cccc4c3CCO4)CC2)CC1 [Example 72, trans-N-(4-{2-[4-(2,3-Dihydro-benzofuran-4-yl)-piperidin-1-yl]-ethyl}-cyclohexyl)-3-hydroxy-3-methyl-butyramide]
- Ki [1]: 56.1 nM
- melting point: 168 °C
- Ki [2]: 6.33 nM
- Ki [3]: 176 nM

Compound: CCCC(=O)N[C@H]1CC[C@H](CCN2CCC(c3cccc4c3CCO4)CC2)CC1 [Example 73, trans-N-(4-{2-[4-(2,3-Dihydro-benzofuran-4-yl)-piperidin-1-yl]-ethyl}-cyclohexyl)-butyramide]
- Ki [1]: 93.4 nM
- melting point: 196 °C
- Ki [2]: 5.16 nM
- Ki [3]: 197 nM

Compound: O=C(CCC(F)(F)F)N[C@H]1CC[C@H](CCN2CCC(c3cccc4c3CCO4)CC2)CC1 [Example 74, trans-N-(4-{2-[4-(2,3-Dihydro-benzofuran-4-yl)-piperidin-1-yl]ethyl}-cyclohexyl)-4,4,4-trifluoro-butyramide]
- Ki [1]: 119 nM
- melting point: 200 °C
- Ki [2]: 7.64 nM
- Ki [3]: 253 nM

Compound: CC(C)CCC(=O)N[C@H]1CC[C@H](CCN2CCC(c3cccc4c3CCO4)CC2)CC1 [Example 75, 4-Methyl-pentanoic acid trans-(4-{2-[4-(2,3-dihydro-benzofuran-4-yl)-piperidin-1-yl]-ethyl}-cyclohexyl)-amide]
- Ki [1]: 72.9 nM
- melting point: 188 °C
- Ki [2]: 9.97 nM
- Ki [3]: 1070 nM

Compound: CCCCC(=O)N[C@H]1CC[C@H](CCN2CCC(c3cccc4c3CCO4)CC2)CC1 [Example 76, Pentanoic acid trans-(4-{2-[4-(2,3-dihydro-benzofuran-4-yl)-piperidin-1-yl]-ethyl}-cyclohexyl)-amide]
- Ki [1]: 103 nM
- melting point: 186 °C
- Ki [2]: 4.57 nM
- Ki [3]: 411 nM

Compound: O=C(N[C@H]1CC[C@H](CCN2CCC(c3cccc4c3CCO4)CC2)CC1)c1ccc(N2CCS(=O)(=O)CC2)cc1 [Example 77, trans-N-(4-{2-[4-(2,3-Dihydro-benzofuran-4-yl)-piperidin-1-yl]-ethyl}-cyclohexyl)-4-(1,1-dioxo-1λ6-thiomorpholin-4-yl)-benzamide]
- Ki [1]: 33 nM
- melting point: 282 °C
- Ki [2]: 5.62 nM
- Ki [3]: 329 nM

- Ki [1]: 30.7 nM
- melting point: 238 °C
- Ki [2]: 4.35 nM
- Ki [3]: 3250 nM
Compound: O=C(N[C@H]1CC[C@H](CCN2CCC(c3cccc4c3CCO4)CC2)CC1)c1ccc2ncccc2c1 [Example 78, Quinoline-6-carboxylic acid trans-(4-{2-[4-(2,3-dihydro-benzofuran-4-yl)-piperidin-1-yl]-ethyl}-cyclohexyl)-amide]

Compound: O=C(N[C@H]1CC[C@H](CCN2CCC(c3cccc4c3CCO4)CC2)CC1)c1ccc2c(c1)OCO2 [Example 79, Benzo[1,3]dioxole-5-carboxylic acid trans-(4-{2-[4-(2,3-dihydro-benzofuran-4-yl)-piperidin-1-yl]-ethyl}-cyclohexyl)-amide]
- Ki [1]: 23 nM
- melting point: 233 °C
- Ki [2]: 3.5 nM
- Ki [3]: 809 nM

Compound: O=C(CC1COC1)N[C@H]1CC[C@H](CCN2CCC(c3cccc4c3CCO4)CC2)CC1 [Example 80, trans-N-(4-{2-[4-(2,3-Dihydro-benzofuran-4-yl)-piperidin-1-yl]-ethyl}-cyclohexyl)-2-oxetan-3-yl-acetamide]
- Ki [1]: 55.5 nM
- melting point: 197 °C
- Ki [2]: 4.27 nM
- Ki [3]: 196 nM

Compound: CC[C@@H](O)CC(=O)N[C@H]1CC[C@H](CCN2CCC(c3cccc4c3CCO4)CC2)CC1 [Example 81, (R)-3-Hydroxy-pentanoic acid trans-(4-{2-[4-(2,3-dihydro-benzofuran-4-yl)-piperidin-1-yl]-ethyl}-cyclohexyl)-amide]
- Ki [1]: 123 nM
- melting point: 201 °C
- Ki [2]: 10 nM
- Ki [3]: 356 nM

Compound: COC(CC(=O)N[C@H]1CC[C@H](CCN2CCC(c3cccc4c3CCO4)CC2)CC1)OC [Example 82, trans-N-(4-{2-[4-(2,3-Dihydro-benzofuran-4-yl)-piperidin-1-yl]ethyl}-cyclohexyl)-3,3-dimethoxy-propionamide]
- Ki [1]: 69.9 nM
- melting point: 240 °C
- Ki [2]: 4.78 nM
- Ki [3]: 366 nM

Compound: CN(C)C(=O)N[C@H]1CC[C@H](CCN2CCC(c3cccc4c3CCO4)CC2)CC1 [Example 83, trans-3-(4-{2-[4-(2,3-Dihydro-benzofuran-4-yl)-piperidin-1-yl]-ethyl}-cyclohexyl)-1,1-dimethyl-urea]
- Ki [1]: 121 nM
- melting point: 260 °C
- Ki [2]: 44.2 nM
- Ki [3]: 69.9 nM

Compound: CC(C)=CC(=O)N[C@H]1CC[C@H](CCN2CCC(c3cccc4c3CCO4)CC2)CC1 [Example 84, 3-Methyl-but-2-enoic acid trans-(4-{2-[4-(2,3-dihydro-benzofuran-4-yl)-piperidin-1-yl]-ethyl}-cyclohexyl)-amide]
- Ki [1]: 59.8 nM
- melting point: 177 °C
- Ki [2]: 6.36 nM
- Ki [3]: 73.9 nM

Compound: C/C=C/CC(=O)N[C@H]1CC[C@H](CCN2CCC(c3cccc4c3CCO4)CC2)CC1 [Example 85, (E)-Pent-3-enoic acid trans-(4-{2-[4-(2,3-dihydro-benzofuran-4-yl)-piperidin-1-yl]-ethyl}-cyclohexyl)-amide]
- Ki [1]: 77.3 nM
- melting point: 196 °C
- Ki [2]: 5.79 nM
- Ki [3]: 438 nM

Compound: CC#CC(=O)N[C@H]1CC[C@H](CCN2CCC(c3cccc4c3CCO4)CC2)CC1 [Example 86, But-2-ynoic acid trans-(4-{2-[4-(2,3-dihydro-benzofuran-4-yl)-piperidin-1-yl]-ethyl}-cyclohexyl)-amide]
- Ki [1]: 45.9 nM
- melting point: 195 °C
- Ki [2]: 7.3 nM
- Ki [3]: 118 nM

Compound: O=CN[C@H]1CC[C@H](CCN2CCC(c3cccc4c3CCO4)CC2)CC1 [Example 87, trans-N-(4-{2-[4-(2,3-Dihydro-benzofuran-4-yl)-piperidin-1-yl]-ethyl}-cyclohexyl)-formamide]
- Ki [1]: 107 nM
- melting point: 142 °C
- Ki [2]: 11.5 nM
- Ki [3]: 167 nM

Compound: CC(C)(C)Oc1ccc(C(=O)N[C@H]2CC[C@H](CCN3CCC(c4cccc5c4CCO5)CC3)CC2)cc1 [Example 88, trans-4-tert-Butoxy-N-(4-{2-[4-(2,3-dihydro-benzofuran-4-yl)-piperidin-1-yl]-ethyl}-cyclohexyl)-benzamide]
- Ki [1]: 42.8 nM
- melting point: 216 °C
- Ki [2]: 22.2 nM
- D2 Ki [3]: inactive
